Tests used:
Assay type in all cases: in vivo
[1] = system: blackgrass (Alopecurus myosuroides); assay: Test C preemergence; settings: for Plant response rating, Blackgrass: scale 0 to 100, 0 no effect, 100 complete control
Outline: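 Visual rating, 0–100 scale (0 = no effect, 100 = complete control) versus controls, 13–15 d after treatment. Compounds in non-phytotoxic solvent plus surfactant; applied preemergence to seeds in loam/sand soil or postemergence to 1- to 4-leaf plants (2–18 cm) in peat/vermiculite medium; greenhouse-held.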

[2] = system: ryegrass, Italian (Italian ryegrass, Lolium multiflorum); assay: Test A preemergence; settings: preemergence
Outline: (§1)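 Preemergence directed soil spray on seeded pots, or postemergence application to plants 2–10 cm, one- to two-leaf. Solvent mixture non-phytotoxic, with surfactant. Scored ~10 d later, visually, 0–100 vs untreated.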

[3] = system: giant foxtail (Setaria faberii); assay: Test A preemergence
Outline: as §1

[4] = system: barnyardgrass (Echinochloa crus-galli); assay: Test A preemergence
Outline: as §1

[5] = system: pigweed (Amaranthus retroflexus); assay: Test A preemergence; settings: preemergence
Kochia (Kochia scoparia) [6] = assay: Test A preemergence
Outline: as §1

[7] = system: ragweed (common ragweed, Ambrosia elatior); assay: Test A preemergence; settings: preemergence
Outline: as §1

[8] = system: ryegrass, Italian (Italian ryegrass, Lolium multiflorum); assay: Test A postemergence; settings: postemergence, 0 to 100 scale (0 no effect, 100 complete control)
Outline: as §1

[9] = system: giant foxtail (Setaria faberii); assay: Test A postemergence; settings: postemergence, 0 to 100 scale (0 no effect, 100 complete control)
Outline: as §1

corn (Zea mays) = assay: Test A postemergence; settings: postemergence, 0 to 100 scale (0 no effect, 100 complete control)
Outline: as §1

[10] = system: Galium (catchweed bedstraw, Galium aparine); assay: Test A postemergence; settings: postemergence, 0 to 100 scale (0 no effect, 100 complete control)
Outline: as §1

[11] = system: barnyardgrass (Echinochloa crus-galli); assay: Test A postemergence; settings: postemergence, 0 to 100 scale (0 no effect, 100 complete control)
Outline: as §1

[12] = system: blackgrass (Alopecurus myosuroides); assay: Test A postemergence; settings: postemergence, 0 to 100 scale (0 no effect, 100 complete control)
Outline: as §1

[13] = system: pigweed (Amaranthus retroflexus); assay: Test A postemergence; settings: postemergence, 0 to 100 scale (0 no effect, 100 complete control)
Outline: as §1

Kochia (Kochia scoparia) [14] = assay: Test A postemergence; settings: postemergence, 0 to 100 scale (0 no effect, 100 complete control)
Outline: as §1

[15] = system: ragweed (common ragweed, Ambrosia elatior); assay: Test A postemergence; settings: postemergence, 0 to 100 scale (0 no effect, 100 complete control)
Outline: as §1

[16] = system: wheat (Triticum aestivum); assay: Test A postemergence; settings: postemergence, 0 to 100 scale (0 no effect, 100 complete control)
Outline: as §1

[17] = system: sedge, umbrella (small-flower umbrella sedge, Cyperus difformis); assay: Test B flooded paddy test; settings: Flood, 500 g ai/ha; 0 to 100 scale where 0 is no effect and 100 is complete control; 13 to 15 d
Outline: (§2)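 2-leaf plants; pots flooded 3 cm over soil; cpd added to paddy water; depth held; greenhouse 13–15 d; visual rating vs controls, 0 = no effect, 100 = complete control.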

rice (Oryra sativa) = assay: Test B flooded paddy test; settings: Flood, 500 g ai/ha; 0 to 100 scale where 0 is no effect and 100 is complete control; 13 to 15 d
Outline: as §2

[18] = system: barnyardgrass (Echinochloa crus-galli); assay: Test B flooded paddy test; settings: Flood, 500 g ai/ha; 0 to 100 scale where 0 is no effect and 100 is complete control; 13 to 15 d
Outline: as §2

[19] = system: ducksalad (Heteranthera limosa); assay: Test B flooded paddy test; settings: Flood, 500 g ai/ha; 0 to 100 scale where 0 is no effect and 100 is complete control; 13 to 15 d
Outline: as §2

[20] = 125 g ai/ha, visual rating after approx. 10 d, 0 to 100 scale where 0 is no effect and 100 is complete control
[21] = 500 g ai/ha, 0 to 100 scale, 0 = no effect, 100 = complete control
[22] = 125 g ai/ha, Preemergence, visual injury after approximately 10 d, 0 to 100 scale where 0 is no effect and 100 is complete control
[23] = 500 g ai/ha, preemergence, 0 to 100 scale, 0 = no effect, 100 = complete control
[24] = 125 g ai/ha, visual injury after approximately 10 d
[25] = 500 g ai/ha, visual injury, approx. 10 d
[26] = 125 g ai/ha, visual rating after approx. 10 d

O=C1NCC(c2cccc(OC(F)(F)C(F)F)c2)C1C(=O)Nc1ccccc1F (racemic) [Compound 695]
Plant response rating (scale of 0 to 100), Blackgrass ([1]; 31 g ai/ha, 0 is no effect, 100 is complete control): 0
Plant response rating, Blackgrass ([1]; 62 g ai/ha): 20
Plant response rating, Blackgrass ([1]; 125 g ai/ha): 90
Plant response rating, Blackgrass ([1]; 250 g ai/ha): 90
Plant response rating, Ryegrass, Italian [2, 20]: 40
Plant response rating, Ryegrass, Italian [2, 21]: 30
Plant response rating, Foxtail, Giant [3, 22]: 90
Plant response rating, Foxtail, Giant [3, 23]: 90
Plant response rating, Barnyardgrass [4, 22]: 90
Plant response rating, Barnyardgrass [4, 23]: 90
Plant response rating, Pigweed [5, 20]: 30
Plant response rating, Pigweed [5, 21]: 40
Plant response rating, Kochia (Kochia (Kochia scoparia) [6]; [22]): 30
Plant response rating, Kochia (Kochia (Kochia scoparia) [6]; [23]): 90
Plant response rating, Ragweed [7, 20]: 20
Plant response rating, Ragweed [7, 21]: 40
Plant response rating, Ryegrass, Italian [8, 24]: 0
Plant response rating, Ryegrass, Italian [8, 25]: 20
Plant response rating, Foxtail, Giant [9, 24]: 80
Plant response rating, Foxtail, Giant [9, 25]: 80
Plant response rating, Corn (corn (Zea mays); [24]): 80
Plant response rating, Corn (corn (Zea mays); [25]): 80
Plant response rating, Galium [10, 24]: 50
Plant response rating, Galium [10, 25]: 40
Plant response rating, Barnyardgrass [11, 26]: 80
Plant response rating, Barnyardgrass [11, 25]: 90
Plant response rating, Blackgrass [12, 26]: 0
Plant response rating, Blackgrass [12, 25]: 40
Plant response rating, Pigweed [13, 24]: 20
Plant response rating, Pigweed [13, 25]: 30
Plant response rating, Kochia (Kochia (Kochia scoparia) [14]; [24]): 30
Plant response rating, Kochia (Kochia (Kochia scoparia) [14]; [25]): 50
Plant response rating, Ragweed [15, 24]: 20
Plant response rating, Ragweed [15, 25]: 40
Plant response rating, Wheat [16, 24]: 20
Plant response rating, Wheat [16, 25]: 40
Plant response rating, Sedge, Umbrella [17]: 0
Plant response rating, Rice (rice (Oryra sativa)): 0
Plant response rating, Barnyardgrass [18]: 80
Plant response rating, Ducksalad [19]: 100
